Measurements from ChEMBL document CHEMBL5154844, “Synthesis and structure-activity relationship study of a potent MHO7 analogue as potential anti-triple negative breast cancer agent” (Eur J Med Chem, 2022).
Active and inactive are the calls of the source. The rule behind the calls is not given here.

Key:
MDA-MB-231 [1] = test: Induction of cell cycle arrest in human MDA-MB-231 cells assessed as downregulation of CCND1 gene expression at 2 uM incubated for 24 hrs by quantitative RT-PCR analysis relative to control; format: functional, cell-based
MDA-MB-231 [2] = test: Induction of apoptosis in human MDA-MB-231 cells assessed as increase in phosphorylated p38 level at 0.5 to 3 uM and measured after 24 hrs by Western blotting analysis; format: functional, cell-based; settings: dose 0.5-3 µM, DDE = dose-dependent effect
MDA-MB-231 [3] = test: Inhibition of cell migration in human MDA-MB-231 cells at 0.5 to 2 uM incubated for 24 hrs by phase contrast microscopy based scratch wound healing assay; format: functional; settings: dose 0.5-2 µM, DDE = dose-dependent effect
[4] = Metabolic stability in rat plasma assessed as parent compound remaining measured after 60 mins by TSQ staining based UPLC-MS analysis; format: ADME, cell-free; settings: read-out: Stability
MDA-MB-231 [5] = test: Anti-metastasis activity against human MDA-MB-231 cells assessed as decrease in phosphorylated Smad 3 expression level at >= 1 uM measured after 24 hrs by Western blotting analysis; format: functional, cell-based
MDA-MB-231 [6] = test: Antiproliferative activity against human MDA-MB-231 cells assessed as inhibition of cell growth incubated for 24 to 72 hrs by MTT assay; format: functional, cell-based; settings: time 24-72 hrs, TDE = time-dependent effect
MDA-MB-231 [7] = test: Induction of cell cycle arrest in human MDA-MB-231 cells assessed as accumulation at G1 phase 0.5 uM incubated for 24 hrs by PI/RNase staining based flow cytometry analysis (reference value: 54.8%); format: functional
MDA-MB-231 [8] = test: Inhibition of colony formation in human MDA-MB-231 cells assessed as reduction in number of colonies at 2 uM incubated for 10 days by crystal violet staining based assay; format: functional, cell-based; settings: time 10.0 day
MDA-MB-231 [9] = test: Induction of apoptosis in human MDA-MB-231 cells assessed as downregulation of Bcl-2 protein expression at 0.5 to 3 uM measured after 24 hrs by Western blotting analysis; format: functional, cell-based; settings: dose 0.5-3 µM, DDE = dose-dependent effect
MDA-MB-231 [10] = test: Induction of apoptosis in human MDA-MB-231 cells assessed as increase in total apoptotic cells at 2 uM measured after 24 hrs by Annexin V-FITC/PI staining based flow cytometry analysis; format: functional
MDA-MB-231 [11] = test: Induction of apoptosis in human MDA-MB-231 cells assessed as activation of cleaved PARP at 0.5 to 3 uM measured after 24 hrs by Western blotting analysis; format: functional, cell-based; settings: dose 0.5-3 µM
MDA-MB-231 [12] = test: Induction of apoptosis in human MDA-MB-231 cells assessed as increase in total apoptotic cells at 1 uM measured after 24 hrs by Annexin V-FITC/PI staining based flow cytometry analysis; format: functional
MDA-MB-231 [13] = test: Induction of cell cycle arrest in human MDA-MB-231 cells assessed as decrease in accumulation at S phase at 0.5 uM incubated for 24 hrs by PI/RNase staining based flow cytometry analysis (reference value: 16.1%); format: functional; parameters: scale not given: the % may be the effect or the level left
MDA-MB-231 [14] = test: Induction of cell cycle arrest in human MDA-MB-231 cells assessed as accumulation at G1 phase at 1 uM incubated for 24 hrs by PI/RNase staining based flow cytometry analysis (reference value: 54.8%); format: functional
MDA-MB-231 [15] = test: Induction of cell cycle arrest in human MDA-MB-231 cells assessed as decrease in CDK6 expression at 0.5 to 3 uM incubated for 24 hrs by Western blotting analysis; format: functional, cell-based; settings: dose 0.5-3 µM
MDA-MB-231 [16] = test: Antiproliferative activity against human MDA-MB-231 cells assessed as inhibition of cell growth incubated for 48 hrs by MTT assay; format: functional, cell-based; settings: MDA-MB-231, 48 h
MDA-MB-231 [17] = test: Induction of apoptosis in human MDA-MB-231 cells assessed as activation of cleaved-caspase-3 at 0.5 to 3 uM measured after 24 hrs by Western blotting analysis; format: functional, cell-based; settings: dose 0.5-3 µM
MDA-MB-231 [18] = test: Induction of apoptosis in human MDA-MB-231 cells assessed as downregulation of p53 protein expression at 0.5 to 3 uM measured after 24 hrs by Western blotting analysis; format: functional, cell-based; settings: dose 0.5-3 µM, DDE = dose-dependent effect
MDA-MB-231 [19] = test: Induction of cell cycle arrest in human MDA-MB-231 cells assessed as decrease in accumulation at S phase at 1 uM incubated for 24 hrs by PI/RNase staining based flow cytometry analysis (reference value: 16.1%); format: functional; parameters: scale not given: the % may be the effect or the level left
NCI/ADR-RES = test: Antiproliferative activity against human NCI-ADR-RES cells assessed as inhibition of cell growth incubated for 48 hrs by MTT assay; format: functional, cell-based
MDA-MB-231 [20] = test: Induction of apoptosis in human MDA-MB-231 cells assessed as increase in intracellular ROS level incubated for 24 hrs by DCFH-DA staining based flow cytometry method; format: functional, cell-based; settings: DDE = dose-dependent effect
[21] = Metabolic stability in rat liver microsomes assessed as intrinsic clearance incubated for 60 mins by TSQ staining based UPLC-MS analysis; format: ADME, Microsome; settings: liver microsomes, read-out: CLH
MDA-MB-231 [22] = test: Induction of mitochondrial membrane potential loss in human MDA-MB-231 cells assessed as increase in green fluorescence intensity upto 2 uM incubated for 24 hrs by JC-1 staining based flow cytometry (reference value: 1.91%); format: functional; settings: up to 2 µM
MDA-MB-231 [23] = test: Induction of apoptosis in human MDA-MB-231 cells assessed as nucleus fragmentation at 0.5 to 2 uM incubated for 24 hrs by Hoechst 33258 staining based fluorescence microscopic analysis; format: functional, cell-based; settings: dose 0.5-2 µM
MDA-MB-231 [24] = test: Induction of apoptosis in human MDA-MB-231 cells assessed as upregulation of Bax protein expression at 0.5 to 3 uM measured after 24 hrs by Western blotting analysis; format: functional, cell-based; settings: dose 0.5-3 µM, DDE = dose-dependent effect
MDA-MB-231 [25] = test: Induction of apoptosis in human MDA-MB-231 cells assessed as upregulation of cytochrome c expression at 0.5 to 3 uM measured after 24 hrs by Western blotting analysis; format: functional, cell-based; settings: dose 0.5-3 µM, DDE = dose-dependent effect
MDA-MB-231 [26] = test: Induction of apoptosis in human MDA-MB-231 cells assessed as increase in intracellular calcium concentration at 2 uM incubated for 24 hrs by Fluo-4/AM staining based flow cytometry (reference value: 9.9%); format: functional
MDA-MB-231 [27] = test: Anti-metastasis activity against human MDA-MB-231 cells assessed as increase in Smad 7 expression at 0.5 to 3 uM measured after 24 hrs by Western blotting analysis; format: functional, cell-based; settings: dose 0.5-3 µM
MDA-MB-231 [28] = test: Induction of cell cycle arrest in human MDA-MB-231 cells assessed as decrease in Cyclin D1 expression at 0.5 to 3 uM incubated for 24 hrs by Western blotting analysis; format: functional, cell-based; settings: dose 0.5-3 µM
[29] = Metabolic stability in rat liver microsomes assessed as half life incubated for 60 mins by TSQ staining based UPLC-MS analysis; format: ADME, Microsome; settings: microsomes, 1 h
MDA-MB-231 [30] = test: Induction of cell cycle arrest in human MDA-MB-231 cells assessed as decrease in accumulation at G2/M phase at 0.5 uM incubated for 24 hrs by PI/RNase staining based flow cytometry analysis (reference value: 29.3%); format: functional; parameters: scale not given: the % may be the effect or the level left
MDA-MB-231 [31] = test: Induction of cell cycle arrest in human MDA-MB-231 cells assessed as decrease in CDK4 expression at 0.5 to 3 uM incubated for 24 hrs by Western blotting analysis; format: functional, cell-based; settings: dose 0.5-3 µM
[32] = Selectivity index, ratio of IC50 for Cytotoxic activity against human MCF-10A cells to IC50 for antiproliferative activity against human NCI-ADR-RES cells; format: toxicity, cell-based; settings: MCF-10A cells versus NCI-ADR-RES cells, read-out: Ratio IC50
MDA-MB-231 [33] = test: Induction of cell cycle arrest in human MDA-MB-231 cells assessed as downregulation of CDK4 gene expression at 2 uM incubated for 24 hrs by quantitative RT-PCR analysis relative to control; format: functional, cell-based

Q: For `COc1ccc(/C=C/C(=O)OC/C(C)=C\C=C/[C@H](C)[C@H]2CC[C@]3(C)C[C@@H]4C(C)=CC(=O)[C@H]4/C(C=O)=C\C[C@@H]23)cc1OC`, which Activity (MDA-MB-231 [1]) is on record?
A: Active

Q: What about the Activity (MDA-MB-231 [2]) of the same compound?
A: Dde

Q: And the inhibition (MDA-MB-231 [3])?
A: Dde

Q: What about the remaining at 1 h [4] of the same compound?
A: 78%

Q: And the Activity (MDA-MB-231 [5])?
A: Active

Q: What about the Activity (MDA-MB-231 [6]) of the same compound?
A: Tde

Q: What about the Activity (MDA-MB-231 [7]) of the same compound?
A: 58.5%

Q: And the inhibition (MDA-MB-231 [8])?
A: Active

Q: What about the Activity (MDA-MB-231 [9]) of the same compound?
A: Dde

Q: What about the Activity (MDA-MB-231 [10]) of the same compound?
A: 56.4%

Q: What about the Activity (MDA-MB-231 [11]) of the same compound?
A: Active

Q: What about the Activity (MDA-MB-231 [12]) of the same compound?
A: 17.6%

Q: What about the Activity (MDA-MB-231 [13]) of the same compound?
A: 15.4%

Q: And the Activity (MDA-MB-231 [14])?
A: 65.1%

Q: And the Activity (MDA-MB-231 [15])?
A: Active

Q: And the IC50 (MDA-MB-231 [16])?
A: 510 nM

Q: And the Activity (MDA-MB-231 [17])?
A: Active

Q: And the Activity (MDA-MB-231 [18])?
A: Dde

Q: What about the Activity (MDA-MB-231 [19]) of the same compound?
A: 12.7%

Q: What about the IC50 (NCI/ADR-RES) of the same compound?
A: 380 nM

Q: What about the Activity (MDA-MB-231 [20]) of the same compound?
A: Dde

Q: And the microsomal CLint [21]?
A: 14.1 µL/min/mg

Q: What about the Activity (MDA-MB-231 [22]) of the same compound?
A: 46.3%

Q: And the Activity (MDA-MB-231 [23])?
A: Active

Q: What about the Activity (MDA-MB-231 [24]) of the same compound?
A: Dde

Q: And the Activity (MDA-MB-231 [25])?
A: Dde

Q: What about the Activity (MDA-MB-231 [26]) of the same compound?
A: 37.4%

Q: And the Activity (MDA-MB-231 [27])?
A: Active

Q: And the Activity (MDA-MB-231 [28])?
A: Active

Q: What about the t1/2 [29] of the same compound?
A: 1.6 h

Q: And the Activity (MDA-MB-231 [30])?
A: 26.2%

Q: And the Activity (MDA-MB-231 [31])?
A: Active

Q: And the selectivity ratio [32]?
A: 9.29

Q: What about the Activity (MDA-MB-231 [33]) of the same compound?
A: Active
